{"source": "patent US20240335373A1", "about": "“Methods, Systems and Devices for Post-Fabrication Drug Loading” (THE UNIVERSITY OF NORTH CAROLINA AT CHAPEL HILL, priority 2020, published 2024)", "key": {"[1]": {"assay": "Drug loading of post-loaded SIL 30 diffusion blocks, solvent extraction and HPLC", "assay_type": "physicochemical", "conditions": "for Drug Loading / Wt. % Loading: loaded 5 mg/mL in acetone 24 hr", "protocol": "Loading. […] . Solutions of 5 mg/mL of drug in acetone were prepared and validated via HPLC. […] Blocks were then divided into an extraction set and a release set.\nExtraction. Drug-loaded blocks were extracted using methods previously described in Section 2.6 using acetone as the extraction solvent. Aliquots were collected and analyzed with HPLC. Weight percent loading was determined as the total drug extracted relative to the mass of the dried blocks.\nBlock types 6.0 and 7.6 mm (n=8 of each type) were fabricated in SIL 30. A solution containing 8.562 mg/mL of 4′-ethynyl-2-fluoro-2′-deoxyadenosine (EFdA) in acetone was prepared and validated via HPLC. Blocks were batch immersed in post-loading solution for up to 24 hr. Blocks were divided into extraction (n=4) and release (n=4) sets. EFdA was extracted from blocks in acetone as previously described and quantified with HPLC. Release blocks were individually immersed in 60 mL of SVF and placed in an incubator at 37° C. Aliquots and analysis were completed using methods previously described. EFdA was quantified with HPLC, eluting at 5.31 min at 265 nm.\nA test part described as a diffusion block with dimensions in X, Y, and Z of 10 mm, 20 mm, and 4 mm, respectively, was primarily used. The general flow of the post-loading process is outlined in FIG. 6A. The initial metrics of dimensional and mass measurements were taken for every block used prior to loading or testing. The block was then immersed in a post-loading solution containing a known concentration of the API for a specified duration. The part was removed and measured for swollen metrics. An aliquot of the post-loading solution following part removal was taken for HPLC analysis. The part was then dried in an oven to remove the post-loading solvent, after which the part was measured for dried metrics. These metrics serve as check points to precisely investigate part behavior throughout the post-loading process, specifically dimensional deformations. Once the part was post-loaded it can either be tested for total drug content via an extraction process, outlined in FIG. 6B, or tested for drug release in simulated vaginal fluid (SVF), outlined in FIG. 6C. Aliquots from both processes are taken for HPLC analysis.\n. For these samples, metrics were taken and aliquots were analyzed via HPLC on a C18 column with an optimized method. Extraction aliquots and post-loading solution aliquots were diluted in acetonitrile (ACN) at 1:100 while release samples were analyzed as is. Extracted material includes both the incorporated drug (β-estradiol) as well as leachables/extractables. […] .\nBlocks were further assessed by quantifying the extracted drug via HPLC. The total amount of drug extracted, weight percent loading and loading efficiency were calculated and averaged, with variation described by % RSD. Overall, a slight decrease in loading metrics was observed as a function of loading order. However, once averaged out, these values yielded minimal variability. Additionally, values shown are in-line with those obtained during the reproducibility study (Section 3.2) for methanol.\nBoth pre-loaded and post-loaded blocks were extracted in 20 mL of EtOH for 72 hours. Aliquots were taken and analyzed via HPLC. […] . […] Therefore, for the sake of consistency between previous results and subsequently prepared samples, loading values obtained in Round II were used for all calculations."}, "[2]": {"assay": "In vivo PK of EFdA-loaded IVRs in macaques", "conditions": "female pigtailed macaques, 28 days", "protocol": "Macaque size (25 mm OD) 3D printed IVRs post-loaded with EFdA at 45 mg/IVR or 62 mg/IVR were administered to female pigtailed macaques and plasma, PBMCs, vagina and rectal fluids, and vaginal and rectal biopsies were collected over 28 days and analyzed for EFdA concentration and EFdA-TP (triphosphorilated EFdA, EFdA-TP) in PBMCs."}, "[3]": {"assay": "In vitro release from drug-loaded blocks or ring sections in simulated vaginal fluid (SVF)", "assay_type": "physicochemical", "conditions": "for Drug Release at Zero Order Mass/Day / Drug Release at Zero Order Percent/Day: linear regression from Day 2"}, "[4]": {"conditions": "cited from earlier work"}, "physchem": {"assay": "physchem", "conditions": "organic solvent or mixture"}, "[5]": {"conditions": "SIL 30 block 6.21 ± 0.03 mm, 8.562 mg/mL in acetone"}, "[6]": {"conditions": "SIL 30 block 6.21 ± 0.03 mm, 8.562 mg/mL in acetone up to 24 hr"}, "[7]": {"conditions": "SIL 30 block 7.62 ± 0.03 mm, 8.562 mg/mL in acetone"}, "[8]": {"conditions": "SIL 30 block 7.62 ± 0.03 mm, 8.562 mg/mL in acetone up to 24 hr"}, "[9]": {"conditions": "SIL 30 block 6.29 ± 0.04 mm, 5 mg/mL in acetone"}, "[10]": {"conditions": "SIL 30 block 6.29 ± 0.04 mm, 5 mg/mL in acetone 24 hr"}, "[11]": {"conditions": "SIL 30 block 7.81 ± 0.08 mm, 5 mg/mL in acetone"}, "[12]": {"conditions": "SIL 30 block 7.81 ± 0.08 mm, 5 mg/mL in acetone 24 hr"}}}
{"molecule": "C#C[C@]1(CO)O[C@@H](n2cnc3c(N)nc(F)nc32)C[C@@H]1O", "note": "[EFdA, 4′-ethynyl-2-fluoro-2′-deoxyadenosine]", "values": [{"measurement": "Normalized Delta SSA", "setting": "[1]; [5]", "result": "−150.63 ± 4.00"}, {"measurement": "Normalized Wt. % by S-SSA", "setting": "[1]; [5]", "result": "81.4 ± 2.26"}, {"measurement": "Drug", "setting": "[1]; [6]", "result": "32.76 ± 0.76", "unit": "mg"}, {"measurement": "Loading", "setting": "[1]; [6]", "result": "2.41 ± 0.06", "unit": "Wt. %"}, {"measurement": "Normalized Delta SSA", "setting": "[1]; [7]", "result": "−195.95 ± 4.41"}, {"measurement": "Normalized Wt. % by S-SSA", "setting": "[1]; [7]", "result": "99.91 ± 3.67"}, {"measurement": "Drug", "setting": "[1]; [8]", "result": "36.91 ± 1.18", "unit": "mg"}, {"measurement": "Loading", "setting": "[1]; [8]", "result": "2.15 ± 0.07", "unit": "Wt. %"}, {"measurement": "EFdA levels in tissue and fluid samples", "setting": "[2]; 45 mg/IVR or 62 mg/IVR", "result": "above the known efficacious levels"}, {"measurement": "EFdA-TP levels in PBMCs", "setting": "[2]; 45 mg/IVR or 62 mg/IVR", "result": "above the known efficacious levels"}, {"measurement": "PK levels", "setting": "[2]; 62 mg vs 45 mg EFdA IVR", "result": "dose dependent"}]}
{"molecule": "Nc1nc(F)nc2c1ncn2[C@H]1C[C@H](O)[C@@H](CO)O1", "note": "[FdA, 2-fluoro-2′-deoxyadenosine]", "values": [{"measurement": "release profile", "setting": "[3]; all post-loaded SIL 30 block types, SVF", "result": "linear and sustained release following an initial burst"}, {"measurement": "Drug Release at Zero Order Mass/Day", "setting": "[3]; block 2.32 ± 0.02 mm, SVF", "result": "406.25 ± 19.80", "unit": "µg/day"}, {"measurement": "Drug Release at Zero Order Percent/Day", "setting": "[3]; block 2.32 ± 0.02 mm, SVF", "result": "6.40 ± 0.20", "unit": "Percent/Day"}, {"measurement": "Drug Release at Zero Order Mass/Day", "setting": "[3]; block 3.26 ± 0.03 mm, SVF", "result": "423.43 ± 17.17", "unit": "µg/day"}, {"measurement": "Drug Release at Zero Order Percent/Day", "setting": "[3]; block 3.26 ± 0.03 mm, SVF", "result": "3.94 ± 0.06", "unit": "Percent/Day"}, {"measurement": "Drug Release at Zero Order Mass/Day", "setting": "[3]; block 4.28 ± 0.04 mm, SVF", "result": "450.51 ± 16.45", "unit": "µg/day"}, {"measurement": "Drug Release at Zero Order Percent/Day", "setting": "[3]; block 4.28 ± 0.04 mm, SVF", "result": "2.93 ± 0.03", "unit": "Percent/Day"}, {"measurement": "Drug Release at Zero Order Mass/Day", "setting": "[3]; block 6.29 ± 0.04 mm, SVF", "result": "453.56 ± 20.13", "unit": "µg/day"}, {"measurement": "Drug Release at Zero Order Percent/Day", "setting": "[3]; block 6.29 ± 0.04 mm, SVF", "result": "2.26 ± 0.01", "unit": "Percent/Day"}, {"measurement": "Drug Release at Zero Order Mass/Day", "setting": "[3]; block 7.81 ± 0.08 mm, SVF", "result": "454.52 ± 20.34", "unit": "µg/day"}, {"measurement": "Drug Release at Zero Order Percent/Day", "setting": "[3]; block 7.81 ± 0.08 mm, SVF", "result": "1.86 ± 0.04", "unit": "Percent/Day"}, {"measurement": "percent burst release normalized by SSA", "setting": "[3]; post-loaded SIL 30 blocks, all block distances, normalized by placebo SSA in SVF", "result": "around 40%"}, {"measurement": "percent burst release plateau", "setting": "[3]; post-loaded SIL 30 blocks, larger block distances, SVF, first 24 hrs", "result": 22, "unit": "%"}, {"measurement": "Normalized Delta SSA", "setting": "[1]; [9]", "result": "−91.19 ± 7.35"}, {"measurement": "Normalized Wt. % by S-SSA", "setting": "[1]; [9]", "result": "47.53 ± 3.10"}, {"measurement": "Drug", "setting": "[1]; [10]", "result": "18.95 ± 1.28", "unit": "mg"}, {"measurement": "Loading", "setting": "[1]; [10]", "result": "1.43 ± 0.10", "unit": "Wt. %"}, {"measurement": "Normalized Delta SSA", "setting": "[1]; [11]", "result": "−103.29 ± 2.04"}, {"measurement": "Normalized Wt. % by S-SSA", "setting": "[1]; [11]", "result": "52.82 ± 1.47"}, {"measurement": "Drug", "setting": "[1]; [12]", "result": "19.38 ± 0.54", "unit": "mg"}, {"measurement": "Loading", "setting": "[1]; [12]", "result": "1.19 ± 0.03", "unit": "Wt. %"}, {"measurement": "Drug Loading", "setting": "[1]; block 0.65 ± 0.01 mm", "result": "2.07 ± 0.06", "unit": "mg"}, {"measurement": "Wt. % Loading", "setting": "[1]; block 0.65 ± 0.01 mm", "result": "1.71 ± 0.07", "unit": "Wt. %"}, {"measurement": "Drug Loading", "setting": "[1]; block 1.51 ± 0.01 mm", "result": "4.07 ± 0.19", "unit": "mg"}, {"measurement": "Wt. % Loading", "setting": "[1]; block 1.51 ± 0.01 mm", "result": "1.60 ± 0.07", "unit": "Wt. %"}, {"measurement": "Drug Loading", "setting": "[1]; block 2.32 ± 0.02 mm", "result": "6.46 ± 0.17", "unit": "mg"}, {"measurement": "Wt. % Loading", "setting": "[1]; block 2.32 ± 0.02 mm", "result": "1.46 ± 0.04", "unit": "Wt. %"}, {"measurement": "Drug Loading", "setting": "[1]; block 3.26 ± 0.03 mm", "result": "9.68 ± 0.70", "unit": "mg"}, {"measurement": "Wt. % Loading", "setting": "[1]; block 3.26 ± 0.03 mm", "result": "1.52 ± 0.11", "unit": "Wt. %"}, {"measurement": "Drug Loading", "setting": "[1]; block 4.28 ± 0.04 mm", "result": "14.42 ± 1.21", "unit": "mg"}, {"measurement": "Wt. % Loading", "setting": "[1]; block 4.28 ± 0.04 mm", "result": "1.62 ± 0.14", "unit": "Wt. %"}, {"measurement": "Drug Loading", "setting": "[1]; block 6.29 ± 0.04 mm", "result": "18.95 ± 1.28", "unit": "mg"}, {"measurement": "Wt. % Loading", "setting": "[1]; block 6.29 ± 0.04 mm", "result": "1.43 ± 0.10", "unit": "Wt. %"}, {"measurement": "Drug Loading", "setting": "[1]; block 7.81 ± 0.08 mm", "result": "19.38 ± 0.54", "unit": "mg"}, {"measurement": "Wt. % Loading", "setting": "[1]; block 7.81 ± 0.08 mm", "result": "1.19 ± 0.03", "unit": "Wt. %"}, {"measurement": "log p", "setting": "[4]", "result": "−0.57"}, {"measurement": "solubility", "setting": "physchem", "result": 9.5, "unit": "mg/mL"}]}
{"molecule": "C[C@]12CC[C@@H]3c4ccc(O)cc4CC[C@H]3[C@@H]1CC[C@@H]2O", "note": "[β-Estradiol, β-estradiol]", "values": [{"measurement": "log p", "setting": "[4]", "result": 3.75}]}
